Experiments:
Assay type in all cases: in vivo
[1] = system: ‘Hark’ Phalaenopsis orchids; test: Spray with 1-MCP solutions with or without Silwet L-77, ethylene challenge (Example 7)
Method: (§1) Spray applications were made using (unless otherwise noted) AFxRD-038 powder containing 3.8% active ingredient, i.e. 1-MCP, and also containing dextrose, alpha-cyclodextrin, and amino acid salt. Rates listed are for active ingredient e.g. 5 mg active ingredient per liter. Sprayed liquid contained (unless otherwise noted) AFxRD-038 powder added to water. AFxRD-038 powder was obtained from AgroFresh Inc. The water used (unless otherwise noted) was tap water. Applications were done in 500 ml spray bottles at rates typical for growth regulators applications in the ornamental industry i.e., 200 ml per square meter. Spraying was done within 5-15 minutes of mixing the formulation. Plants were allowed to dry for 1-4 hours before being challenged with ethylene (2 ppm for about 16 hours at ambient temperatures).
(§2) Surfactant Silwet™ L-77 (called “surf” below) was sometimes included to evaluate the effect of surfactant on efficacy. Silwet™ L-77 was used in the form of a pure liquid. The amounts shown below as “ml/L” refer to milliliters of pure Silwet™ L-77 per liter of liquid CP composition.
Percent of plants showing one or more of flower wilting, bud wilting, and drop on ‘Hark’ Phalaenopsis orchids (in pots) sprayed with 1-MCP solutions with or without Silwet™ L-77 surfactant and challenged with ethylene.

Regal Geranium ‘Jewel’ = test: Spray with 1-MCP solutions with or without surfactant, ethylene challenge (Example 4)
Method: as §1, §2
Flower loss (%) on Regal Geranium cultivars, ‘Camelot’ and ‘Jewel’ (in pots), sprayed with 1-MCP solutions with or without surfactant (Silwet™ L-77) and challenged with ethylene.

Cyclamen plants = test: Spray with 1-MCP solutions, ethylene challenge (Example 1); conditions: Day 7; for Appearance: 1 = poor, 5 = excellent
Method: as §1
(§3) Visual appearance and flower or bud abscission of Impatiens (unknown cultivar in pots with diameter of 10 cm (4 inch)) and Cyclamen plants (unknown cultivar in pots of diameter 11.5 cm (4.5 inch)) sprayed with 1-MCP solutions and challenged with ethylene.

Impatiens = test: as above; conditions: 0 = poor, 5 = excellent
Method: as §1, §3

[2] = system: Callibrachoa “Cherry Blossom”; test: Racks of flowering plants sprayed, truck 14 hours, ethylene challenge (Example 8); conditions: 25 mg/L, 200 ml/square meter, scale 0 (poor) to 2 (good)
Method: as §1
(§4) Racks of flowers were sprayed with spray liquid containing 25 mg/L at rate of 200 ml/square meter. Racks were then placed into a full enclosed truck (length 7.3 meter) for 14 hours. Plants were then challenged with ethylene and evaluated 3 and 7 days later, using a rating scale from 0 (poor) to 2 (good). […]

Snapdragon (yellow) = test: as above; conditions: 25 mg/L, 200 ml/square meter, scale 0 (poor) to 2 (good)
Method: as §1, §4

Verbena “babylon Red” = test: as above; conditions: 25 mg/L, 200 ml/square meter, scale 0 (poor) to 2 (good)
Method: as §1, §4

Dianthus (mixed) = test: as above; conditions: 25 mg/L, 200 ml/square meter, scale 0 (poor) to 2 (good)
Method: as §1, §4

Petunia “Royal Velvet” = test: as above; conditions: 25 mg/L, 200 ml/square meter, scale 0 (poor) to 2 (good)
Method: as §1, §4

Impatiens (light pink) = test: as above; conditions: 25 mg/L, 200 ml/square meter, scale 0 (poor) to 2 (good)
Method: as §1, §4

Dianthus “Ideal White” = test: as above; conditions: 25 mg/L, 200 ml/square meter, scale 0 (poor) to 2 (good)
Method: as §1, §4

Impatiens (double pink) = test: as above; conditions: 25 mg/L, 200 ml/square meter, scale 0 (poor) to 2 (good)
Method: as §1, §4

Impatiens (dark pink) = test: as above; conditions: 25 mg/L, 200 ml/square meter, scale 0 (poor) to 2 (good)
Method: as §1, §4

Campanula = test: Spray with 1-MCP solutions without surfactant, ethylene challenge (Example 3)
Method: as §1
Bud wilting and flower abscission (%) of Campanula (in pots) sprayed with 1-MCP solutions without a surfactant, and challenged with ethylene. We observed the percent of plants on which one or more buds or one or more flowers underwent wilting or abscission or both.

Which “flower wilt, bud wilt, and/or drop (%)” value ([1]; 1-MCP 5 mg/L, surf 0 ml/L, Day 0) does the source give for `CC1=CC1` [1-MCP, 1-methylcyclopropene] here?
Its value is 0 a %.

What about the “flower wilt, bud wilt, and/or drop (%)” value ([1]; 1-MCP 5 mg/L, surf 0 ml/L, Day 5) of the same molecule?
The value was 1.8%.

What about the “flower wilt, bud wilt, and/or drop (%)” value ([1]; 1-MCP 5 mg/L, surf 0 ml/L, Day 10) of the same molecule?
The value was 1.8%.

And the “flower wilt, bud wilt, and/or drop (%)” value ([1]; 1-MCP 5 mg/L, surf 0 ml/L, Day 15)?
Its value is 1.8%.

What about the “flower wilt, bud wilt, and/or drop (%)” value ([1]; 1-MCP 10 mg/L, surf 0 ml/L, Day 0) of the same molecule?
Its value is 0 a %.

What about the “flower wilt, bud wilt, and/or drop (%)” value ([1]; 1-MCP 10 mg/L, surf 0 ml/L, Day 5) of the same molecule?
Its value is 2.9%.

What about the “flower wilt, bud wilt, and/or drop (%)” value ([1]; 1-MCP 10 mg/L, surf 0 ml/L, Day 10) of the same molecule?
Its value is 2.9%.

And the “flower wilt, bud wilt, and/or drop (%)” value ([1]; 1-MCP 10 mg/L, surf 0 ml/L, Day 15)?
Its value is 2.9%.

What about the “flower wilt, bud wilt, and/or drop (%)” value ([1]; 1-MCP 25 mg/L, surf 0 ml/L, Day 0) of the same molecule?
Its value is 0 a %.

And the “flower wilt, bud wilt, and/or drop (%)” value ([1]; 1-MCP 25 mg/L, surf 0 ml/L, Day 5)?
The value was 0%.

What about the “flower wilt, bud wilt, and/or drop (%)” value ([1]; 1-MCP 25 mg/L, surf 0 ml/L, Day 10) of the same molecule?
The value was 0%.

What about the “flower wilt, bud wilt, and/or drop (%)” value ([1]; 1-MCP 25 mg/L, surf 0 ml/L, Day 15) of the same molecule?
The value was 0%.

What about the “flower wilt, bud wilt, and/or drop (%)” value ([1]; 1-MCP 50 mg/L, surf 0 ml/L, Day 0) of the same molecule?
The value was 0 a %.

And the “flower wilt, bud wilt, and/or drop (%)” value ([1]; 1-MCP 50 mg/L, surf 0 ml/L, Day 5)?
The value was 1.8%.

And the “flower wilt, bud wilt, and/or drop (%)” value ([1]; 1-MCP 50 mg/L, surf 0 ml/L, Day 10)?
Its value is 1.8%.

And the “flower wilt, bud wilt, and/or drop (%)” value ([1]; 1-MCP 50 mg/L, surf 0 ml/L, Day 15)?
Its value is 1.8%.

And the “flower wilt, bud wilt, and/or drop (%)” value ([1]; 1-MCP 50 mg/L, surf 0.25 ml/L, Day 0)?
The value was 0 a %.

And the “flower wilt, bud wilt, and/or drop (%)” value ([1]; 1-MCP 50 mg/L, surf 0.25 ml/L, Day 5)?
The value was 0%.

And the “flower wilt, bud wilt, and/or drop (%)” value ([1]; 1-MCP 50 mg/L, surf 0.25 ml/L, Day 10)?
Its value is 0%.

And the “flower wilt, bud wilt, and/or drop (%)” value ([1]; 1-MCP 50 mg/L, surf 0.25 ml/L, Day 15)?
The value was 0%.

And the “Flower Loss (%)” value (Regal Geranium ‘Jewel’; 1-MCP 5 mg/L, surf. 0 ml/L, Day 1 (Day 1/Day 2 column pair))?
Its value is 84^ %.

And the “Flower Loss (%)” value (Regal Geranium ‘Jewel’; 1-MCP 5 mg/L, surf. 0 ml/L, Day 1 (Day 1/Day 7 column pair))?
The value was 90%.

And the “Flower Loss (%)” value (Regal Geranium ‘Jewel’; 1-MCP 5 mg/L, surf. 0 ml/L, Day 2)?
The value was 100 ^ %.

And the “Flower Loss (%)” value (Regal Geranium ‘Jewel’; 1-MCP 5 mg/L, surf. 0 ml/L, Day 7)?
Its value is 76%.

What about the “Flower Loss (%)” value (Regal Geranium ‘Jewel’; 1-MCP 5 mg/L, surf. 2 ml/L, Day 1, phytotoxicity was observed) of the same molecule?
Its value is 65^(3) %.

And the “Flower Loss (%)” value (Regal Geranium ‘Jewel’; 1-MCP 5 mg/L, surf. 2 ml/L, Day 2, phytotoxicity was observed)?
Its value is 100^(3) %.

What about the “Flower Loss (%)” value (Regal Geranium ‘Jewel’; 1-MCP 10 mg/L, surf. 0 ml/L, Day 1) of the same molecule?
Its value is 85%.

What about the “Flower Loss (%)” value (Regal Geranium ‘Jewel’; 1-MCP 10 mg/L, surf. 0 ml/L, Day 7) of the same molecule?
Its value is 68%.

And the “Flower Loss (%)” value (Regal Geranium ‘Jewel’; 1-MCP 25 mg/L, surf. 0 ml/L, Day 1)?
Its value is 52%.

And the “Flower Loss (%)” value (Regal Geranium ‘Jewel’; 1-MCP 25 mg/L, surf. 0 ml/L, Day 7)?
The value was 43%.

And the “Flower Loss (%)” value (Regal Geranium ‘Jewel’; 1-MCP 50 mg/L, surf. 0 ml/L, Day 1 (Day 1/Day 2 column pair), phytotoxicity was observed)?
Its value is 28^(3) %.

And the “Flower Loss (%)” value (Regal Geranium ‘Jewel’; 1-MCP 50 mg/L, surf. 0 ml/L, Day 1 (Day 1/Day 7 column pair), phytotoxicity was observed)?
The value was 26^(3) %.

And the “Flower Loss (%)” value (Regal Geranium ‘Jewel’; 1-MCP 50 mg/L, surf. 0 ml/L, Day 2, phytotoxicity was observed)?
The value was 82^(3) %.

What about the “Flower Loss (%)” value (Regal Geranium ‘Jewel’; 1-MCP 50 mg/L, surf. 0 ml/L, Day 7, phytotoxicity was observed) of the same molecule?
The value was 65^(3) %.

And the “Flower Loss (%)” value (Regal Geranium ‘Jewel’; 1-MCP 50 mg/L, surf. 2 ml/L, Day 1, phytotoxicity was observed)?
Its value is 35^(3) %.

And the “Flower Loss (%)” value (Regal Geranium ‘Jewel’; 1-MCP 50 mg/L, surf. 2 ml/L, Day 2, phytotoxicity was observed)?
Its value is 81^(3) %.

What about the “Abscission (%)” value (Cyclamen plants; 1-MCP 10 mg/L) of the same molecule?
Its value is 25.6%.

What about the Appearance (Cyclamen plants; 1-MCP 10 mg/L) of the same molecule?
Its Appearance is 3.7.

And the “Abscission (%)” value (Cyclamen plants; 1-MCP 15 mg/L)?
Its value is 23.3%.

What about the Appearance (Cyclamen plants; 1-MCP 15 mg/L) of the same molecule?
The Appearance was 3.7.

And the “Abscission (%)” value (Cyclamen plants; 1-MCP 25 mg/L)?
Its value is 25.0%.

What about the Appearance (Cyclamen plants; 1-MCP 25 mg/L) of the same molecule?
The Appearance was 3.7.

And the Appearance (Impatiens; 1-MCP 10 mg/L, Day 1)?
Its Appearance is 3.7.

And the Appearance (Impatiens; 1-MCP 10 mg/L, Day 4)?
The Appearance was 3.3.

And the Appearance (Impatiens; 1-MCP 100 mg/L, Day 1)?
Its Appearance is 4.3.

And the Appearance (Impatiens; 1-MCP 100 mg/L, Day 4)?
Its Appearance is 3.7.

What about the Appearance (Impatiens; 1-MCP 300 mg/L, Day 1) of the same molecule?
Its Appearance is 2.3.

And the Appearance (Impatiens; 1-MCP 300 mg/L, Day 4)?
The Appearance was 1.3.

And the “rating, Sprayed” value ([2]; Day 3)?
The value was 1.00 a.

What about the “rating, Sprayed” value ([2]; Day 7) of the same molecule?
The value was 1.00 a.

What about the “rating, Sprayed” value (Snapdragon (yellow); Day 3) of the same molecule?
The value was 0.83 a.

And the “rating, Sprayed” value (Snapdragon (yellow); Day 7)?
The value was 0.58 a.

What about the “rating, Sprayed” value (Verbena “babylon Red”; Day 3) of the same molecule?
Its value is 0.58 a.

And the “rating, Sprayed” value (Verbena “babylon Red”; Day 7)?
The value was 0.19 a.

What about the “rating, Sprayed” value (Dianthus (mixed); Day 3) of the same molecule?
The value was 0.58 a.

What about the “rating, Sprayed” value (Dianthus (mixed); Day 7) of the same molecule?
Its value is 0.25 a.

And the “rating, Sprayed” value (Petunia “Royal Velvet”; Day 3)?
Its value is 1.00 a.

And the “rating, Sprayed” value (Petunia “Royal Velvet”; Day 7)?
The value was 0.38 a.

What about the “rating, Sprayed” value (Impatiens (light pink); Day 3) of the same molecule?
The value was 1.00 a.

And the “rating, Sprayed” value (Impatiens (light pink); Day 7)?
The value was 1.00 a.

What about the “rating, Sprayed” value (Dianthus “Ideal White”; Day 3) of the same molecule?
The value was 0.92 a.

What about the “rating, Sprayed” value (Dianthus “Ideal White”; Day 7) of the same molecule?
Its value is 1.00 a.

And the “rating, Sprayed” value (Impatiens (double pink); Day 3)?
The value was 1.00 a.

And the “rating, Sprayed” value (Impatiens (double pink); Day 7)?
Its value is 0.58 a.

What about the “rating, Sprayed” value (Impatiens (dark pink); Day 3) of the same molecule?
Its value is 1.00 a.

What about the “rating, Sprayed” value (Impatiens (dark pink); Day 7) of the same molecule?
The value was 0.83 a.

And the “Bud Wilting and/or Flower Abscission (%)” value (Campanula; 1-MCP 5 mg/L, Day 1)?
Its value is 21%.

And the “Bud Wilting and/or Flower Abscission (%)” value (Campanula; 1-MCP 5 mg/L, Day 7)?
The value was 25%.

What about the “Bud Wilting and/or Flower Abscission (%)” value (Campanula; 1-MCP 10 mg/L, Day 1) of the same molecule?
The value was 45%.

What about the “Bud Wilting and/or Flower Abscission (%)” value (Campanula; 1-MCP 10 mg/L, Day 7) of the same molecule?
The value was 52%.

And the “Bud Wilting and/or Flower Abscission (%)” value (Campanula; 1-MCP 25 mg/L, Day 1)?
The value was 38%.

And the “Bud Wilting and/or Flower Abscission (%)” value (Campanula; 1-MCP 25 mg/L, Day 7)?
The value was 59%.

And the “Bud Wilting and/or Flower Abscission (%)” value (Campanula; 1-MCP 50 mg/L, Day 1)?
Its value is 38%.

What about the “Bud Wilting and/or Flower Abscission (%)” value (Campanula; 1-MCP 50 mg/L, Day 7) of the same molecule?
Its value is 57%.

— patent US20110034335A1, “Treatment of Ornamental Plants” (priority 2009, published 2011)
